Assay results taken from US10925872B2, “Methods of treating cochlear synaptopathy” (PIPELINE THERAPEUTICS, INC., priority 2016, dated 2021).

What was measured:
[1] = test system: DCC α-fragment; test: DCC α-fragment Western blot of cochlea after round window delivery in vivo; parameters: species or system CBA/J mice; details: 2% in vehicle, 2 μl bilaterally to the round window, one week later
Description: Compound I (2% in vehicle, 2 μl) or vehicle (2 μl) was delivered bilaterally to the round window of CBA/J mice. One week later, cochlea were collected and processed for Western blot. Both cochlea from two animals were used to generate each data point. Cochlea were homogenized in 50 μL radioimmunoprecipitation assay buffer then allowed to lyse further at 4° C. for 1 h. Bone was spun out and 4× sample loading buffer added. Samples were run on a 4-15% TGX gradient gel (BioRad, Hercules, Calif.) and transferred to a nitrocellulose membrane and blocked with Odyssey Blocking Buffer (LI-COR, NE). Blots were probed with mouse DCC (BD Biosciences, San Jose, Calif.) at 1:500, and rabbit actin (loading control) antibodies (Li-Cor, NE) in blocking buffer containing 0.1% Tween-20. Membranes were washed with PBS/0.1% Tween then incubated in secondary antibody (goat anti-mouse IRDye 680LT and goat anti-rabbit IRDye 800LT, both from LI-COR, NE) diluted 1:10,000 in blocking buffer containing 0.1% Tween-20 and 0.01% SDS. Membranes were washed in PBS then imaged on a LiCor Odyssey Classic scanner and the DCC α-fragment quantified using ImageJ.

[2] = test system: DCC α-fragment; test: DCC α-fragment Western blot, mouse ex vivo cochlea (spiral ganglion); assay type: cell-based, CD-1 mice; details: postnatal day 21 cochlea, 1 μM, 24 h, normalized to actin
Excerpt: (§1) Previous reports have shown that DCC (deleted in colorectal cancer) is a γ-secretase substrate. DCC is the receptor for the guidance molecule, netrin, and its activation results in neuronal axon outgrowth, axon turning and synapse formation. Embryonic spinal cords of presenilin knockout mice treated display persistent expression of the DCC α-fragment; these fragments can enhance netrin-DCC mediated events, including axon outgrowth in cultured motor neurons (Taniguchi et al., 2003, J. Biol. Chem., 278:30425-30428, and Bai et al., 2011, Cell, 144(1): 106-18). The following studies were performed using GSM, “RO”, as well as the GSI, Compound I. RO has the structure:
Cochleae were obtained from postnatal day 21 CD-1 mice. An opening was made in the bone at the cochlear apex to allow for fluid flow. Cochlea were incubated in serum-free growth media (DMEM-F12, N2 and B27 serum supplements, penicillin/streptomycin) with 1 μM RO or 1 μM Compound I. After 24 h, spiral ganglion were isolated and processed for Western blot. Membranes were probed with a DCC antibody recognizing the intracellular domain and bands were normalized to actin.

[3] = test system: inner hair cell synapses; test: Mouse noise-induced cochlear synaptopathy, local GSI (synapse counts, ABR wave I); assay type: in vivo, CBA/J mice
Description: Two separate experiments were conducted using this protocol: in Experiment 1 (FIG. 7A) compound I treatment was compared to NT3, in Experiment 2 (FIG. 7B, 7C and FIG. 8) we evaluated two dose levels of compound I. For both experiments female CBA/J mice 6 weeks old (The Jackson Laboratory, Bar Harbor, Me.) were exposed, awake and unrestrained, to filtered octave band noise (8-16 kHz) for 2 hours at 98 dB SPL in a reverberant sound-exposure box. Mice were placed in a custom designed wire cage sitting atop high density 4-inch foam with the wire floor 1-inch above the foam. The noise waveform was generated and filtered with a TDT RZ6 pre-amplifier (Tucker Davis Technologies, Alachua, Fla.), amplified by a Crown XLS1000 power amplifier, and delivered by JBL 2426H Compression Driver coupled to a JBL 2730A horn. Sound levels were verified in the center of the cage using a ¼-inch condenser microphone (PCB Piezotronics, Depew, N.Y.) before each exposure. ABR was collected 1 and 14 days post-noise exposure to ensure a temporary threshold shift with no permanent threshold shift. Seventeen days after noise, mice were dosed bilaterally with crystalline Compound I, (2% in PF10*) or NT3 (2 μL of 150 ng/μL) (Experiment 1); crystalline Compound I (2% and 0.2% in PF10) (Experiment 2); and ABR was collected 14 days post-dose. Vehicle control animals received bilateral injections of PF10. Age matched naïve control animals were also used.
ABR Wave I analysis: The auditory brain-stem response (ABR) waveform comprises a set of waves (labeled I-V). Mice were anesthetized with ketamine and xylazine. ABR waveforms were collected using Tucker-Davis Technologies RZ6 Auditory Processor. The stimuli used were 5 ms tone (2 ms cos 2 rise-fall) at frequencies from 4, 8, 16, 24, and 32 kHz delivered in alternating polarity at 21/s. […] Wave I peak amplitudes were determined by extracting the raw waveform voltage averages and determining the window or latency at which the peak of wave I appears. […]

[4] = test system: DCC α-fragment; test: DCC α-fragment Western blot, mouse ex vivo embryonic spinal cord; assay type: cell-based, CD-1 mice; details: embryonic day 15 spinal cord segments, 1 μM, 24 h, normalized to actin
Excerpt: as §1
Spinal cords from embryonic day 15 CD-1 mice were collected and cut into 1-2 mm segments and transferred to serum-free growth media (DMEM-F12, N2 and B27 serum supplements, penicillin/streptomycin) with 1 μM RO or 1 μM Compound I. Segments were cultured for 24 h (37° C., 5% CO2) then processed for Western blot. Membranes were probed with a DCC antibody recognizing the intracellular domain and bands were normalized to actin.

[5] = both 0.2% and 2% dosages in PF10, bilateral, 17 days after noise, 14 days post-dose

## C[C@H](OC(=O)NCC(F)(F)C(F)(F)F)C(=O)N[C@@H]1C(=O)Nc2ccccc2-c2ccccc21 [Compound I, (2,2,3,3,3-pentafluoropropyl)-carbamic acid (S)-1-((S)-6-oxo-6,7-dihydro-5H-dibenzo[b,d]azepin-7-ylcarbamoyl) ethyl ester]
[1]
  DCC α-fragment compared to vehicle alone: approximately two fold increase
[2]
  DCC α-fragment level compared to the vehicle group: Increase in α-fragment
[3]; [5]
  synapse recovery in the mid 1 region (16-24 kHz): nearly complete synapse recovery
  synapse recovery in the mid 2 region (24-32 kHz): nearly complete synapse recovery
[3]; local administration following noise induced synaptopathy
  ABR wave I amplitudes: improved wave I amplitudes
[4]
  DCC α-fragment level compared to the vehicle group: Increase in α-fragment
